From patent US8580814B2, “Methods of using (+)-1,4-dihydro-7-[(3S,4S)-3-methoxy-4-(methylamino)-1-pyrrolidinyl]-4- oxo-1-(2-thiazolyl)-1,8-naphthyridine-3-carboxylic acid for treatment of cancer” (priority 2006, dated 2013) come the findings set out here.

What is called IC50 is the concentration needed to halve the response being measured. What is called AUC(0-inf) is the area under the concentration-time curve extrapolated to infinity. The term half-life denotes the time in which the quantity being followed falls by half. Read a low half-life as fast loss.

Converted amounts (≈) assume the structure as drawn.

Data set [1] relates to H460 lung cancer cell line. Kind of data set: Combination studies, MTT assay, Combination Index. Type of data set: cell-based. Particulars: SNS-595 dosed simultaneously with various cytotoxics, H460, Fa=0.5. The protocol: (§1) Cell lines and Cell Culture: HCT116 and NCI-H460 cell lines were obtained from ATCC. SKOV3(p53−/−) and SKOV3(p53+/+) were obtained from the lab of Dr. George Stark of the Lerner Institute of the Cleveland Clinic. All cell lines were cultured in RPMI media supplemented with 10% FBS 1% Sodium Bicarbonate solution and 1% Antibiotic Solution (Cellgro).
(§2) MTT assay: Cells were plated at 4000 cells per well (except SKOV3 (p53−/−) which were plated at 8000 cells per well) in a 96 well plate, incubated for 24 hours and then treated with compound. Compound treatment lasted 72 hours. Cells were then incubated with 5% MTT for 1-2 hours, and lysed. MTT was colorimetrically read at 570 nm. The fraction of dead cells was determined by the following formula: Fraction of Dead cells=1−[Abs of sample well−Avg(Abs of no cell control)]/[Avg(Abs of DMSO only control)−Avg(abs of no cell control)]
(§3) Statistical Analysis: The data (Fraction of Dead cells) was analyzed using Calculsyn.V2 (Biosoft) and is herein represented as the value of the Combination Index at Fraction affected (Fa)=0.5. All data is shown with error bars indicating the 95% confidence intervals of the mean value.
(§4) A combination is said to be additive if it yields a Combination Index of 0.85-1.2. […]
Background: Tetrazolium dyes change colour on reduction, which living cells bring about.

The subject of data set [2] is SKOV3 ovarian cancer cell line with or without p53 expression. Briefly: Combination studies, MTT assay, Combination Index. Type of data set: cell-based. Particulars: SNS-595 dosed simultaneously with a selection of DNA damaging agents and antimetabolites. The protocol: as §1, §2, §3, §4
Data set [3] concerns CCRF-CEM (lymphoblastic leukemia). Kind of data set: MTT cell viability assay, leukemia cells. Type of data set: cell-based. Particulars: Homo sapiens, MTT after 72 hours. The protocol:
(§5) The following cell lines were used in this assay: HL-60 (promyelocytic leukemia); Jurkat (T cell leukemia); CCRF-CEM (lymphoblastic leukemia); CEM/C2 (camptothecan resistant derivative of CCRF-CEM). Cells were seeded in 96 wells plates at 3000 cells per well and incubated for 16 hours. […] Titrations were diluted 1:100 in media to achieve final compound concentrations. The 96 well plates were aspirated and compound dilutions in media were added ([…]). MTT analysis was carried out after 72 hours of incubation at 37° C. Briefly, […] of MTT solution was added to each well. Cells were incubated at 37° C. for 1-2 hours. […] Plates were read on a spectromax machine with an absorbance measurement at […]. IC50's were calculated (data provided in Table 13) using regression analysis within GraphPad Prism.

The test system of data set [4] is CEM/C2 (camptothecan resistant derivative of CCRF-CEM). Briefly: MTT cell viability assay, leukemia cells. In kind it is cell-based. Particulars: Homo sapiens; CEM/C2, MTT after 72 hours. Here is the method:
as §5

In data set [5] the test system is HL-60 (promyelocytic leukemia). Briefly: MTT cell viability assay, leukemia cells. In kind it is cell-based. Particulars: Homo sapiens; HL-60, MTT after 72 hours. The protocol:
as §5

The test system of the next data set is Jurkat (T cell leukemia). Briefly: MTT cell viability assay, leukemia cells. Particulars: Homo sapiens, MTT after 72 hours. Type of data set: cell-based. Here is the method:
as §5

Details of data set [6]: species or system female CD-1 mice. To be noted: mouse, in vivo. Here is the method: Female CD-1 mice were administered 5, 10, 15, or 20 mg/kg SNS-595 intravenously on Day 0 and Day 4. Blood was drawn on days 6, 8, and 12 post initial injection for hematological analysis. Femurs were extracted on day 6 fixed in Streck and H&E stained prior to bone marrow cellularity analysis. […] At 20 mg/kg, cellularity was reduced to 7.5%, while circulating neutrophils were reduced from a pre-dose level of […] to a nadir of 51±24 cells/mL blood on day 8.

The nature of another data set: clinical. Particulars: human, in vivo; for AUC(0-inf) / half-life: both sexes. Here is the method:
SNS-595 was administered to patients with advanced or refractory acute leukemias as a slow IV push. Diagnoses included AML (19 patients) and ALL (2 patients). All patients had disease refractory to or relapsed from prior therapy (median 3 prior regimens (range 1-6)).
A total of 21 patients (9 female and 12 male; median age=64 yrs, range 21-80) were treated in five cohorts using two schedules. In the first schedule (A), a weekly dose of SNS-595 was administered for three weeks followed by 7 days off (qwk×3). In the second schedule (B), a dose of SNS-595 was administered twice a week for two weeks (biwk×2). The cycle duration, including days off, was 28 days for both schedules. […] Additional cycles were permitted if patients achieved stable disease or better. The starting dose was 18 mg/m^2 on schedule A and 9 mg/m^2 on schedule B, and dosage was escalated by cohort. Cohorts of 3-6 patients were accrued to doses using a modified Fibonacci sequence.
Pharmacokinetic analyses for SNS-595 were performed on plasma samples collected during cycle 1.
Plasma SNS-595 concentrations were determined using a validated LC-MS/MS assay. Plasma exposures at the first two dose levels for each schedule increased linearly, resulting in AUCs of 4.3-17.8 ughr/mL for 9-27 mg/m^2 doses. […] Six patients distributed across all dosing groups shown in Table 15 experienced greater than 50% reductions in peripheral blasts following cycle 1.

On to `CN[C@H]1CN(c2ccc3c(=O)c(C(=O)O)cn(-c4nccs4)c3n2)C[C@@H]1OC` [SNS-595, (+)-1,4-dihydro-7-[(3S,4S)-3-methoxy-4-(methylamino)-1-pyrrolidinyl]-4-oxo-1-(2-thiazolyl)-1,8-naphthyridine-3-carboxylic acid], for which the combination indices entry in data set [1] is given as “significantly synergistic or at least additive”. Besides, in data set [2], the “change in the combination index between SKOV3 with or without p53 expression” value is recorded as “no significant change”. The IC50 in data set [3] stood at 0.018 µg/mL (≈ 0.0448 µM); in data set [4] it was 0.01 µg/mL (≈ 0.0249 µM); in data set [5], 0.053 µg/mL (≈ 0.132 µM); in the data set with Jurkat (T cell leukemia), 0.023 µg/mL (≈ 0.0573 µM). In data set [6], the peripheral neutrophils result is reported as “significant decrease”. The platelet response result in data set [6] is listed as “minor platelet response”. The “Total WBCs” value in data set [6] (iv) is “reached a nadir on day 8, but returned to normal levels”. In addition, the AUC(0-inf) amounted to 4300 ± 1300 ng·h/mL in “clinical” (9 mg/m2), 5900 ± 2900 ng·h/mL in the data set “clinical” (13.5 mg/m2), 8000 ± 1400 ng·h/mL in the data set “clinical” (18 mg/m2) and 17800 ± 5000 ng·h/mL in the data set “clinical” (27 mg/m2). The values for the half-life in the data set “clinical” (13.5 mg/m2) and in “clinical” (27 mg/m2) were 21 ± 7 h and 22 ± 10 h, respectively. For the same compound, in “clinical” (both), the “terminal half-lives, averaged” value was 23 h. Further, the “T ½” value turned out to be 24 ± 5 h in the data set “clinical” (both, 9 mg/m2) and 24 ± 4 h in the data set “clinical” (both, 18 mg/m2). For the same compound, the Vssobs in the data set “clinical” (both, 9 mg/m2) is given as 65 ± 2 L/m^2; in the data set “clinical” (both, 13.5 mg/m2) it was 61 ± 6 L/m^2; in the data set “clinical” (both, 18 mg/m2), 72 ± 21 L/m^2; in “clinical” (both, 27 mg/m2), 47 ± 21 L/m^2. Besides, the “CL, averaged” value in “clinical” is on record as ~2 L/hr/m^2. For the same compound, in the data set “clinical”, the “Vss, averaged” value is recorded as 58 L/m^2.
